Reference: PMC12446476 (Nature Communications, 2025)
≈ marks a conversion by molar mass, not a printed value. Read-outs that look alike come from different tables or passages of the source.

Test system: N. gonorrhoeae
Test: MIC determination, agar dilution (CLSI)
Type: cell-based, Neisseria gonorrhoeae
Conditions: for MIC: Neisseria gonorrhoeae
Summary of the method: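 For N. gonorrhoeae, WHO 2024 reference strains served as quality control, only whole doubling-dilution MICs were reported, and isolates were classified by EUCAST v14.0 breakpoints or ECOFF. Time-kill assays followed CLSI in Columbia broth with 1% IsoVitaleX, and viable counts came from plating serial dilutions on GC agar with IsoVitaleX.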

Structure (SMILES): Cc1c(CN(C)C(=O)/C=C/c2cnc3c(c2)N[C@H](C)[C@H](O)C(=O)N3)oc2ccccc12 [Debio 1453]
- MIC range (100 contemporary clinical N. gonorrhoeae isolates): 0.008 to 0.125 µg/mL
- MIC range (2024 WHO N. gonorrhoeae reference strains): 0.03 to 0.125 µg/mL
- increase in MIC (6804 clones with FabI L257F vs parent): 4 fold
- MIC (AR Bank0179-15 (AZM-R), mode of multiple measures, read-out: MIC): 0.03 µg/mL (≈ 0.0713 µM)
- MIC (AR Bank0181-17 (AZM-R), mode of multiple measures, read-out: MIC): 0.125 µg/mL (≈ 0.297 µM)
- MIC (ATCC700825, read-out: MIC relevant for mutant selection assay, ATCC 700825): 0.016 µg/mL (≈ 0.0381 µM)
- MIC (WHO F, agar dilution, read-out: MIC): 0.03 µg/mL (≈ 0.0713 µM)
- MIC (WHO H, agar dilution, read-out: MIC): 0.06 µg/mL (≈ 0.143 µM)
- MIC (WHO K, agar dilution, read-out: MIC): 0.06 µg/mL (≈ 0.143 µM)
- MIC (WHO L, agar dilution, read-out: MIC): 0.03 µg/mL (≈ 0.0713 µM)
- MIC (WHO M, agar dilution, read-out: MIC): 0.06 µg/mL (≈ 0.143 µM)
- MIC (WHO O, agar dilution, read-out: MIC): 0.06 µg/mL (≈ 0.143 µM)
- MIC (WHO P, agar dilution, read-out: MIC): 0.125 µg/mL (≈ 0.297 µM)
- MIC (WHO Q, agar dilution, read-out: MIC): 0.06 µg/mL (≈ 0.143 µM)
- MIC (WHO R, agar dilution, read-out: MIC): 0.06 µg/mL (≈ 0.143 µM)
- MIC (WHO S2, agar dilution, read-out: MIC): 0.06 µg/mL (≈ 0.143 µM)
- MIC (WHO U, agar dilution, read-out: MIC): 0.125 µg/mL (≈ 0.297 µM)
- MIC (WHO V, agar dilution, read-out: MIC): 0.06 µg/mL (≈ 0.143 µM)
- MIC (WHO X-07 (CIP-R, CRO-R), mode of multiple measures, read-out: MIC): 0.125 µg/mL (≈ 0.297 µM)
- MIC (WHO X, agar dilution, read-out: MIC): 0.06 µg/mL (≈ 0.143 µM)
- MIC (WHO Y, agar dilution, read-out: MIC): 0.06 µg/mL (≈ 0.143 µM)
- MIC (WHO Z, agar dilution, read-out: MIC): 0.06 µg/mL (≈ 0.143 µM)
- MIC (clinical N. gonorrhoeae isolate 1, Sweden 2023, read-out: Minimum inhibitory concentration): 0.064 µg/mL (≈ 0.152 µM)
- MIC (clinical N. gonorrhoeae isolate 2, Sweden 2023, read-out: Minimum inhibitory concentration): 0.032 µg/mL (≈ 0.0761 µM)
- MIC (clinical N. gonorrhoeae isolate 3, Sweden 2023, read-out: Minimum inhibitory concentration): 0.064 µg/mL (≈ 0.152 µM)
- MIC (clinical N. gonorrhoeae isolate 4, Sweden 2023, read-out: Minimum inhibitory concentration): 0.032 µg/mL (≈ 0.0761 µM)
- MIC (clinical N. gonorrhoeae isolate 5, Sweden 2023, read-out: Minimum inhibitory concentration): 0.064 µg/mL (≈ 0.152 µM)
- MIC (clinical N. gonorrhoeae isolate 6, Sweden 2023, read-out: Minimum inhibitory concentration): 0.032 µg/mL (≈ 0.0761 µM)
- MIC (clinical N. gonorrhoeae isolate 7, Sweden 2023, read-out: Minimum inhibitory concentration): 0.064 µg/mL (≈ 0.152 µM)
- MIC (clinical N. gonorrhoeae isolate 8, Sweden 2023, read-out: Minimum inhibitory concentration): 0.064 µg/mL (≈ 0.152 µM)
- MIC (clinical N. gonorrhoeae isolate 9, Sweden 2023, read-out: Minimum inhibitory concentration): 0.064 µg/mL (≈ 0.152 µM)
- MIC (clinical N. gonorrhoeae isolate 10, Sweden 2023, read-out: Minimum inhibitory concentration): 0.064 µg/mL (≈ 0.152 µM)
- MIC (clinical N. gonorrhoeae isolate 11, Sweden 2023, read-out: Minimum inhibitory concentration): 0.064 µg/mL (≈ 0.152 µM)
- MIC (clinical N. gonorrhoeae isolate 12, Sweden 2023, read-out: Minimum inhibitory concentration): 0.032 µg/mL (≈ 0.0761 µM)
- MIC (clinical N. gonorrhoeae isolate 13, Sweden 2023, read-out: Minimum inhibitory concentration): 0.064 µg/mL (≈ 0.152 µM)
- MIC (clinical N. gonorrhoeae isolate 14, Sweden 2023, read-out: Minimum inhibitory concentration): 0.032 µg/mL (≈ 0.0761 µM)
- MIC (clinical N. gonorrhoeae isolate 15, Sweden 2023, read-out: Minimum inhibitory concentration): 0.064 µg/mL (≈ 0.152 µM)
- MIC (clinical N. gonorrhoeae isolate 16, Sweden 2023, read-out: Minimum inhibitory concentration): 0.064 µg/mL (≈ 0.152 µM)
- MIC (clinical N. gonorrhoeae isolate 17, Sweden 2023, read-out: Minimum inhibitory concentration): 0.064 µg/mL (≈ 0.152 µM)
- MIC (clinical N. gonorrhoeae isolate 18, Sweden 2023, read-out: Minimum inhibitory concentration): 0.064 µg/mL (≈ 0.152 µM)
- MIC (clinical N. gonorrhoeae isolate 19, Sweden 2023, read-out: Minimum inhibitory concentration): 0.064 µg/mL (≈ 0.152 µM)
- MIC (clinical N. gonorrhoeae isolate 20, Sweden 2023, read-out: Minimum inhibitory concentration): 0.064 µg/mL (≈ 0.152 µM)
- MIC (clinical N. gonorrhoeae isolate 21, Sweden 2023, read-out: Minimum inhibitory concentration): 0.064 µg/mL (≈ 0.152 µM)
- MIC (clinical N. gonorrhoeae isolate 22, Sweden 2023, read-out: Minimum inhibitory concentration): 0.125 µg/mL (≈ 0.297 µM)
- MIC (clinical N. gonorrhoeae isolate 23, Sweden 2023, read-out: Minimum inhibitory concentration): 0.064 µg/mL (≈ 0.152 µM)
- MIC (clinical N. gonorrhoeae isolate 24, Sweden 2023, read-out: Minimum inhibitory concentration): 0.125 µg/mL (≈ 0.297 µM)
- MIC (clinical N. gonorrhoeae isolate 25, Sweden 2023, read-out: Minimum inhibitory concentration): 0.064 µg/mL (≈ 0.152 µM)
- MIC (clinical N. gonorrhoeae isolate 26, Sweden 2023, read-out: Minimum inhibitory concentration): 0.032 µg/mL (≈ 0.0761 µM)
- MIC (clinical N. gonorrhoeae isolate 27, Sweden 2023, read-out: Minimum inhibitory concentration): 0.064 µg/mL (≈ 0.152 µM)
- MIC (clinical N. gonorrhoeae isolate 28, Sweden 2023, read-out: Minimum inhibitory concentration): 0.064 µg/mL (≈ 0.152 µM)
- MIC (clinical N. gonorrhoeae isolate 29, Sweden 2023, read-out: Minimum inhibitory concentration): 0.064 µg/mL (≈ 0.152 µM)
- MIC (clinical N. gonorrhoeae isolate 30, Sweden 2023, read-out: Minimum inhibitory concentration): 0.125 µg/mL (≈ 0.297 µM)
- MIC (clinical N. gonorrhoeae isolate 31, Sweden 2023, read-out: Minimum inhibitory concentration): 0.064 µg/mL (≈ 0.152 µM)
- MIC (clinical N. gonorrhoeae isolate 32, Sweden 2023, read-out: Minimum inhibitory concentration): 0.016 µg/mL (≈ 0.0381 µM)
- MIC (clinical N. gonorrhoeae isolate 33, Sweden 2023, read-out: Minimum inhibitory concentration): 0.064 µg/mL (≈ 0.152 µM)
- MIC (clinical N. gonorrhoeae isolate 34, Sweden 2023, read-out: Minimum inhibitory concentration): 0.064 µg/mL (≈ 0.152 µM)
- MIC (clinical N. gonorrhoeae isolate 35, Sweden 2023, read-out: Minimum inhibitory concentration): 0.032 µg/mL (≈ 0.0761 µM)
- MIC (clinical N. gonorrhoeae isolate 36, Sweden 2023, read-out: Minimum inhibitory concentration): 0.016 µg/mL (≈ 0.0381 µM)
- MIC (clinical N. gonorrhoeae isolate 37, Sweden 2023, read-out: Minimum inhibitory concentration): 0.064 µg/mL (≈ 0.152 µM)
- MIC (clinical N. gonorrhoeae isolate 38, Sweden 2023, read-out: Minimum inhibitory concentration): 0.064 µg/mL (≈ 0.152 µM)
- MIC (clinical N. gonorrhoeae isolate 39, Sweden 2023, read-out: Minimum inhibitory concentration): 0.008 µg/mL (≈ 0.019 µM)
- MIC (clinical N. gonorrhoeae isolate 40, Sweden 2023, read-out: Minimum inhibitory concentration): 0.064 µg/mL (≈ 0.152 µM)
- MIC (clinical N. gonorrhoeae isolate 41, Sweden 2023, read-out: Minimum inhibitory concentration): 0.125 µg/mL (≈ 0.297 µM)
- MIC (clinical N. gonorrhoeae isolate 42, Sweden 2023, read-out: Minimum inhibitory concentration): 0.032 µg/mL (≈ 0.0761 µM)
- MIC (clinical N. gonorrhoeae isolate 43, Sweden 2023, read-out: Minimum inhibitory concentration): 0.064 µg/mL (≈ 0.152 µM)
- MIC (clinical N. gonorrhoeae isolate 44, Sweden 2023, read-out: Minimum inhibitory concentration): 0.032 µg/mL (≈ 0.0761 µM)
- MIC (clinical N. gonorrhoeae isolate 45, Sweden 2023, read-out: Minimum inhibitory concentration): 0.032 µg/mL (≈ 0.0761 µM)
- MIC (clinical N. gonorrhoeae isolate 46, Sweden 2023, read-out: Minimum inhibitory concentration): 0.032 µg/mL (≈ 0.0761 µM)
- MIC (clinical N. gonorrhoeae isolate 47, Sweden 2023, read-out: Minimum inhibitory concentration): 0.064 µg/mL (≈ 0.152 µM)
- MIC (clinical N. gonorrhoeae isolate 48, Sweden 2023, read-out: Minimum inhibitory concentration): 0.016 µg/mL (≈ 0.0381 µM)
- MIC (clinical N. gonorrhoeae isolate 49, Sweden 2023, read-out: Minimum inhibitory concentration): 0.032 µg/mL (≈ 0.0761 µM)
- MIC (clinical N. gonorrhoeae isolate 50, Sweden 2023, read-out: Minimum inhibitory concentration): 0.064 µg/mL (≈ 0.152 µM)
- MIC (clinical N. gonorrhoeae isolate 51, Sweden 2023, read-out: Minimum inhibitory concentration): 0.016 µg/mL (≈ 0.0381 µM)
- MIC (clinical N. gonorrhoeae isolate 52, Sweden 2023, read-out: Minimum inhibitory concentration): 0.125 µg/mL (≈ 0.297 µM)
- MIC (clinical N. gonorrhoeae isolate 53, Sweden 2023, read-out: Minimum inhibitory concentration): 0.064 µg/mL (≈ 0.152 µM)
- MIC (clinical N. gonorrhoeae isolate 54, Sweden 2023, read-out: Minimum inhibitory concentration): 0.064 µg/mL (≈ 0.152 µM)
- MIC (clinical N. gonorrhoeae isolate 55, Sweden 2023, read-out: Minimum inhibitory concentration): 0.064 µg/mL (≈ 0.152 µM)
- MIC (clinical N. gonorrhoeae isolate 56, Sweden 2023, read-out: Minimum inhibitory concentration): 0.008 µg/mL (≈ 0.019 µM)
- MIC (clinical N. gonorrhoeae isolate 57, Sweden 2023, read-out: Minimum inhibitory concentration): 0.032 µg/mL (≈ 0.0761 µM)
- MIC (clinical N. gonorrhoeae isolate 58, Sweden 2023, read-out: Minimum inhibitory concentration): 0.064 µg/mL (≈ 0.152 µM)
- MIC (clinical N. gonorrhoeae isolate 59, Sweden 2023, read-out: Minimum inhibitory concentration): 0.064 µg/mL (≈ 0.152 µM)
- MIC (clinical N. gonorrhoeae isolate 60, Sweden 2023, read-out: Minimum inhibitory concentration): 0.064 µg/mL (≈ 0.152 µM)
- MIC (clinical N. gonorrhoeae isolate 61, Sweden 2023, read-out: Minimum inhibitory concentration): 0.064 µg/mL (≈ 0.152 µM)
- MIC (clinical N. gonorrhoeae isolate 62, Sweden 2023, read-out: Minimum inhibitory concentration): 0.016 µg/mL (≈ 0.0381 µM)
- MIC (clinical N. gonorrhoeae isolate 63, Sweden 2023, read-out: Minimum inhibitory concentration): 0.032 µg/mL (≈ 0.0761 µM)
- MIC (clinical N. gonorrhoeae isolate 64, Sweden 2023, read-out: Minimum inhibitory concentration): 0.008 µg/mL (≈ 0.019 µM)
- MIC (clinical N. gonorrhoeae isolate 65, Sweden 2023, read-out: Minimum inhibitory concentration): 0.064 µg/mL (≈ 0.152 µM)
- MIC (clinical N. gonorrhoeae isolate 66, Sweden 2023, read-out: Minimum inhibitory concentration): 0.032 µg/mL (≈ 0.0761 µM)
